SMILES strings stand for the structures.

In general, EC50 refers to the concentration that produces a half-maximal response.

For this experiment, the system named is HCV replicon. The experiment is described as follows: HCV replicon replication assay (NPT ELISA) in Huh-7 replicon-containing cells. The experiment is classed as cell-based. The note with it: Hepatitis C virus, 72 h; HCV replicon in Huh-7 cells, three days incubation; read-out: EC50. In outline:
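Huh-7 cells carrying a bicistronic HCV replicon (HCV-IRES-neo, EMCV-IRES-driven NS3–NS5B, 3′-NTR) were seeded at 6000-7500 cells/well, grown 24 h to 60-70% confluence, then treated with graded compound concentrations. Replication was read as NPT level by capture ELISA (rabbit anti-NPTII, Eu-N1 secondary); interferon alpha served as positive control.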
Take `C=C[C@@H]1C[C@]1(NC(=O)[C@@H]1C[C@@H](Oc2cc(-c3ccccn3)nc3c(Cl)c(OC)ccc23)CN1C(=O)[C@@H](CC(=O)N1CCC(F)(F)C1)C(C)(C)C)C(=O)NS(=O)(=O)C1CC1` [Compound 206, (2S,4R)-1-((S)-2-tert-butyl-4-(3,3-difluoropyrrolidin-1-yl)-4-oxobutanoyl)-4-(8-chloro-7-methoxy-2-(pyridin-2-yl)quinolin-4-yloxy)-N-((1R)-1-(cyclopropylsulfonyl-carbamoyl)-2-vinylcyclopropyl)pyr-rolidine-2-carboxamide]: the EC50 was less than 1000 nM.

In the case of `C=C[C@@H]1C[C@]1(NC(=O)[C@@H]1C[C@@H](Oc2cc(-c3ccccn3)nc3c(Cl)c(OC)ccc23)CN1C(=O)[C@@H](CC(=O)N1CCCC1C(F)(F)F)C(C)(C)C)C(=O)NS(=O)(=O)C1CC1` (stereo partly drawn) [Compound 207, (2S,4R)-1-((2S)-2-tert-butyl-4-oxo-4-(2-(trifluoromethyl)pyr-rolidin-1-yl)butanoyl)-4-(8-chloro-7-methoxy-2-(pyridin-2-yl)quinolin-4-yloxy)-N-((1R)-1-(cyclopropylsulfonyl-carbamoyl)-2-vinylcyclopropyl)pyr-rolidine-2-carboxamide], the EC50 is less than 1000 nM. Next, `C=C[C@@H]1C[C@]1(NC(=O)[C@@H]1C[C@@H](Oc2cc(-c3ccccn3)nc3c(Cl)c(OC)ccc23)CN1C(=O)[C@@H](CC(=O)N1CCC(C(F)(F)F)CC1)C(C)(C)C)C(=O)NS(=O)(=O)C1CC1` [Compound 208, (2S,4R)-1-((S)-2-tert-butyl-4-oxo-4-(4-(trifluoro-methyl)piperidin-1-yl)butanoyl)-4-(8-chloro-7-methoxy-2-(pyridin-2-yl)quinolin-4-yloxy)-N-((1R)-1-(cyclopropyl-sulfonylcarbamoyl)-2-vinylcyclo-propyl)pyrrolidine-2-carboxamide]: less than 1000 nM; `C=C[C@@H]1C[C@]1(NC(=O)[C@@H]1C[C@@H](Oc2cc(-c3ccccn3)nc3c(Cl)c(OC)ccc23)CN1C(=O)[C@@H](CC(=O)N1CCCC(F)C1)C(C)(C)C)C(=O)NS(=O)(=O)C1CC1` (stereo partly shown) [Compound 209]: less than 1000 nM; `C=C[C@@H]1C[C@]1(NC(=O)[C@@H]1C[C@@H](Oc2cc(-c3ccccc3)nc3cc(OC)ccc23)CN1C(=O)[C@@H](CC(=O)N1CCCCC1)C(C)(C)C)C(=O)O` [Compound 210, (1R)-1-((2S,4R)-1-((S)-2-tert-butyl-4-oxo-4-(piperidin-1-yl)butanoyl)-4-(7-methoxy-2-phenylquinolin-4-yloxy)pyrrolidine-2-carboxamido)-2-vinylcyclopropane-carboxylic acid]: greater than 10000 nM. Next, `C=C[C@@H]1C[C@]1(NC(=O)[C@@H]1C[C@@H](Oc2cc(-c3ccccc3)nc3cc(OC)ccc23)CN1C(=O)[C@@H](CC(=O)N1CCCC[C@H]1C(=O)Nc1nccs1)C(C)(C)C)C(=O)NS(=O)(=O)C1CC1` [Compound 211, (2S)-1-((3S)-3-((2S,4R)-2-((1R)-1-(cyclopropyl-sulfonylcarbamoyl)-2-vinylcyclopropyl-carbamoyl)-4-(7-methoxy-2-phenylquinolin-4-yloxy)pyrrolidine-1-carbonyl)-4,4-dimethylpentanoyl)-N-(thiazol-2-yl)piperidine-2-carboxamide]: less than 1000 nM. In the case of `C=C[C@@H]1C[C@]1(NC(=O)[C@@H]1C[C@@H](Oc2cc(-c3ccccc3)nc3cc(OC)ccc23)CN1C(=O)[C@@H](CC(=O)N1CCCC1C(=O)Nc1nccs1)C(C)(C)C)C(=O)NS(=O)(=O)C1CC1` (stereo partly drawn) [Compound 212, (2S,4R)-1-((S)-2-tert-butyl-4-oxo-4-((S)-2-(thiazol-2-ylcarbamoyl)pyr-rolidin-1-yl)butanoyl)-N-((1R)-1-(cyclo-propylsulfonyl-carbamoyl)-2-vinylcyclopropyl)-4-(7-methoxy-2-phenylquinolin-4-yloxy)pyrrolidine-2-carboxamide], the EC50 is less than 1000 nM.

As for `C=C[C@@H]1C[C@]1(NC(=O)[C@H]1C[C@@H](Oc2cc(-c3ccccc3)nc3cc(OC)ccc23)CN1C(=O)[C@@H](CC(=O)N1CCCCC1)C(C)(C)C)C(=O)NS(=O)(=O)C1CC1` [Compound 213, (2R,4R)-1-((S)-2-tert-butyl-4-oxo-4-(piperidin-1-yl)butanoyl)-N-((1R)-1-(cyclo-propylsulfonyl-carbamoyl)-2-vinyl-cyclopropyl)-4-(7-methoxy-2-phenylquinolin-4-yloxy)pyrrolidine-2-carboxamide], the concentration for a half-maximal effect (EC50) is less than 1000 nM. The result for `C=C[C@@H]1C[C@]1(NC(=O)[C@@H]1C[C@@H](Oc2cc(-c3ccccn3)nc3cc(OC)ccc23)CN1C(=O)[C@@H](CC(=O)N1CCC(F)(F)C1)C(C)(C)C)C(=O)NS(=O)(=O)C1CC1` [Compound 214, (2S,4R)-1-((S)-2-tert-butyl-4-(3,3-difluoropyrrolidin-1-yl)-4-oxobutanoyl)-N-((1R)-1-(cyclopropyl-sulfonylcarbamoyl)-2-vinylcyclopropyl)-4-(7-methoxy-2-(pyridin-2-yl)quinolin-4-yloxy)pyrrolidine-2-carboxamide] reads less than 1000 nM; that for `C=C[C@@H]1C[C@]1(NC(=O)[C@@H]1C[C@@H](Oc2cc(-c3ccccn3)nc3cc(OC)ccc23)CN1C(=O)[C@@H](CC(=O)N1CCC(C(F)(F)F)CC1)C(C)(C)C)C(=O)NS(=O)(=O)C1CC1` [Compound 215, (2S,4R)-1-((S)-2-tert-butyl-4-oxo-4-(4-(trifluoro-methyl)piperidin-1-yl)butanoyl)-N-((1R)-1-(cyclopropyl-sulfonylcarbamoyl)-2-vinylcyclopropyl)-4-(7-methoxy-2-(pyridin-2-yl)quinolin-4-yloxy)pyrrolidine-2-carboxamide], less than 1000 nM; that for `C=C[C@@H]1C[C@]1(NC(=O)[C@@H]1C[C@@H](Oc2cc(-c3ccccn3)nc3cc(OC)ccc23)CN1C(=O)[C@@H](CC(=O)N1CCC(F)(F)CC1)C(C)(C)C)C(=O)NS(=O)(=O)C1CC1` [Compound 216, (2S,4R)-1-((S)-2-tert-butyl-4-(4,4-difluoropiperidin-1-yl)-4-oxobutanoyl)-N-((1R)-1-(cyclo-propylsulfonyl-carbamoyl)-2-vinylcyclopropyl)-4-(7-methoxy-2-(pyridin-2-yl)quinolin-4-yloxy)pyrrolidine-2-carboxamide], less than 1000 nM. Next, `C=C[C@@H]1C[C@]1(NC(=O)[C@@H]1C[C@@H](Oc2cc(-c3ccccn3)nc3cc(OC)ccc23)CN1C(=O)[C@@H](CC(=O)N1CCCC(F)(F)C1)C(C)(C)C)C(=O)NS(=O)(=O)C1CC1` [Compound 217, (2S,4R)-1-((S)-2-tert-butyl-4-(3,3-difluoropiperidin-1-yl)-4-oxobutanoyl)-N-((1R)-1-(cyclopropyl-sulfonylcarbamoyl)-2-vinylcyclopropyl)-4-(7-methoxy-2-(pyridin-2-yl)quinolin-4-yloxy)pyrrolidine-2-carboxamide]: less than 1000 nM; `C=C[C@@H]1C[C@]1(NC(=O)[C@@H]1C[C@@H](Oc2cc(-c3ccccn3)nc3cc(OC)ccc23)CN1C(=O)[C@@H](CC(=O)N1CCC(F)CC1)C(C)(C)C)C(=O)NS(=O)(=O)C1CC1` [Compound 218, (2S,4R)-1-((S)-2-tert-butyl-4-(4-fluoropiperidin-1-yl)-4-oxobutanoyl)-N-((1R)-1-(cyclo-propylsulfonyl-carbamoyl)-2-vinylcyclopropyl)-4-(7-methoxy-2-(pyridin-2-yl)quinolin-4-yloxy)pyrrolidine-2-carboxamide]: less than 1000 nM.

For the origin of these results see patent US9133115B2 (ACHILLION PHARMACEUTICALS, INC., priority 2008, dated 2015).
